# Reference: patent publication US10968232B2 (Merck Sharp & Dohme Corp., priority 2016, dated 2021)
# Target: T1, human GPR40 (Homo sapiens, UniProt O14842)
# T1 construct: expressed in transfected cells
# Assay: Inositol Phosphate Turnover (IP1) Assay
# Assay type: cell-based
# Conditions: HEK cells stably expressing human GPR40; CisBio IP-One kit; 60 minutes at 37 degrees; read-out: Human IP1 EC50
# Method in brief: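 HEK cells stably expressing GPR40, plated 16 h, then exposed to compound in stimulation buffer for 60 min at 37 °C. IP1 accumulation read by HTRF IP-One detection after 60 min at RT.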
# T1 sequence (O14842 whole entry): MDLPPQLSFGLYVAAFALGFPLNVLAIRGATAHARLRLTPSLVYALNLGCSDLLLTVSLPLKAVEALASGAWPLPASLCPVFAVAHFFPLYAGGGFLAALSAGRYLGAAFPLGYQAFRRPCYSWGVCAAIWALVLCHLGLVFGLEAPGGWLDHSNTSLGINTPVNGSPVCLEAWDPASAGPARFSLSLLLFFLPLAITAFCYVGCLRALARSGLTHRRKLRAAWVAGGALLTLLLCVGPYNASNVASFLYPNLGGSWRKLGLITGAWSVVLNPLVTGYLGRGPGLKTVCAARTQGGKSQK
row,Structure (SMILES),EC50
1,"CC(c1cc(Cl)ccc1OC(F)(F)F)N1CCC2(CCc3ccc([C@H](C4CC4)[C@H](C)C(=O)O)c(F)c3O2)CC1 (stereo partly drawn) [Example 21, (2S,3R)-3-(1′-(1-(5-chloro-2-(trifluoromethoxy)phenyl)ethyl)-8-fluorospiro[chroman-2,4′-piperidin]-7-yl)-3-cyclopropyl-2-methylpropanoic Acid]",3.66 nM
2,"C[C@H](C(=O)O)[C@H](c1ccc2c(c1)OC1(CCCN([C@@H](C)c3cc(C(F)(F)F)ccc3C(F)(F)F)C1)CC2)C1CC1 (single isomer, unassigned) [Example 75, (2S,3R)-3-((S or R)-1′-((S)-1-(2,5-bis (trifluoromethyl)phenyl)-ethyl)spiro[chroman-2,3′-piperidin]-7-yl)-3-cyclopropyl-2-methylpropanoic acid]",0.374 nM
3,"CC(c1cc(Cl)ccc1C(F)(F)F)N1CCC2(CCc3ccc([C@H](C4CC4)[C@H](C)C(=O)O)cc3O2)CC1 (mixture of isomers) [Example 5, (2S3R)-3-(1′-((RS)-1-(5-chloro-2-(trifluoromethyl)phenyl)ethyl)spiro[chroman-2,4′-piperidin]-7-yl)-3-cyclopropyl-2-methylpropanoic Acid]",2.71 nM
4,"C[C@H](C(=O)O)[C@H](c1ccc2c(c1F)OC1(CC2)CCN(Cc2cc(Cl)ccc2OC(F)(F)F)CC1)C1CC1 [Example 4, (2S,3R)-3-(1′-(5-chloro-2-(trifluoromethoxy)benzyl)-8-fluorospiro[chroman-2,4′-piperidin]-7-yl)-3-cyclopropyl-2-methylpropanoic Acid]",8.06 nM
5,"C[C@H](C(=O)O)[C@H](c1ccc2c(c1)OC1(CC2)CCN(S(=O)(=O)c2cc(C(F)(F)F)ccc2C(F)(F)F)CC1)C1CC1 [Example 23, (2S,3R)-3-(1′-((2,5-bis(trifluoromethyl)phenyl)sulfonyl)spiro[chroman-2,4′-piperidin]-7-yl)-3-cyclopropyl-2-methylpropanoic Acid]",14.3 nM
6,"C[C@H](C(=O)O)[C@H](c1ccc2c(c1)OC1(CC2)CCN(c2ccccc2C(F)(F)F)CC1)C1CC1 [Example 35, sodium (2S,3R)-3-cyclopropyl-2-methyl-3-(1′-(2-(trifluoromethyl)phenyl)-spiro[chroman-2,4′-piperidin]-7-yl)propanoate]",5.79 nM
7,"C[C@H](C(=O)O)[C@H](c1ccc2c(c1)OC1(CC2)CCN(Cc2cc(C(F)(F)F)cc(Cl)c2F)CC1)C1CC1 [Example 24, (2S,3R)-3-(1′-(3-chloro-2-fluoro-5-(trifluoromethyl)benzyl)spiro[chroman-2,4′-piperidin]-7-yl)-3-cyclopropyl-2-methylpropanoic Acid]",11.2 nM
8,"C[C@H](C(=O)O)[C@H](c1ccc2c(c1F)OC1(CC2)CCN(Cc2cc(Cl)ccc2OC(F)F)CC1)C1CC1 [Example 20, (2S,3R)-3-(1′-(5-chloro-2-(difluoromethoxy)benzyl)-8-fluorospiro[chroman-2,4′-piperidin]-7-yl)-3-cyclopropyl-2-methylpropanoic Acid]",13.5 nM
9,"C[C@H](C(=O)O)[C@H](c1ccc2c(c1)OC1(CCCN([C@H](C)c3cc(C(F)(F)F)ccc3C(F)(F)F)C1)CC2)C1CC1 (single isomer, unassigned) [Example 74, (2S,3R)-3-((S or R)-1′-((R)-1-(2,5-bis (trifluoromethyl)phenyl)-ethyl)spiro[chroman-2,3′-piperidin]-7-yl)-3-cyclopropyl-2-methylpropanoic acid]",18.3 nM
10,"C[C@H](C(=O)O)[C@H](c1ccc2c(c1)OC1(CC2)[C@@H]2CC[C@H]1CN([C@@H](C)c1cc(C(F)(F)F)ccc1C(F)(F)F)C2)C1CC1 (stereo partly drawn) [Example 86, (2S,3R)-3-((1R,5S)-3-((S)-1-(2,5-bis(trifluoro-methyl)phenyl)ethyl)-3-azaspiro[bicyclo[3.2.1]oc-tane-8,2′-chroman]-7′-yl)-3-cyclopropyl-2-methylpropanic acid]",46.5 nM
11,"CC(c1cc(F)cc(F)c1Cl)N1CCC2(CCc3ccc([C@H](C4CC4)[C@H](C)C(=O)O)c(F)c3O2)CC1 (single isomer, unassigned) [Example 17, (2S,3R)-3-(1′-((S or R)-1-(2-chloro-3,5-difluorophenyl)ethyl)-8-fluorospiro-[chroman-2,4′-piperidin]-7-yl)-3-cyclopropyl-2-methylpropanoic Acid]",37.3 nM
12,"CC(c1cc(F)ccc1OC(F)(F)F)N1CCC2(CCc3ccc([C@H](C4CC4)[C@H](C)C(=O)O)c(F)c3O2)CC1 (stereo partly drawn) [Example 2, (2S,3R)-3-cyclopropyl-3-(8-fluoro-1′-(1-(5-fluoro-2-(trifluoro-methoxy)phenyl)ethyl)-spiro[chroman-2,4′-piperidin]-7-yl)-2-methylpropanoic acid]",3.29 nM
13,"CC(c1cc(C2CC2)ccc1C(F)(F)F)N1CCC2(CCc3ccc([C@H](C4CC4)[C@H](C)C(=O)O)cc3O2)CC1 (single isomer, unassigned) [Example 57, (2S,3R)-3-cyclopropyl-3-(1′-((R or S)-1-(5-cyclopropyl-2-(trifluoromethyl)phenyl)-ethyl)-spiro[chroman-2,4′-piperidin]-7-yl)-2-methylpropanoic Acid]",1.4 nM

# More lines, now with the values ahead:
row,EC50,Structure (SMILES)
1,91.6 nM,"Cc1cc(-c2ccc(OC(F)(F)F)c(C(C)N3CCC4(CCc5ccc([C@H](C6CC6)[C@H](C)C(=O)O)cc5O4)CC3)c2)n(C)n1 (mixture of isomers) [Example 114, (2S,3R)-3-cyclopropyl-3-(1′-((RS)-1-(5-(1,3-dimethyl-1H-pyrazol-5-yl)-2-(trifluoromethoxy)phenyl)eth-yl)spiro[chroman-2,4′-piperidin]-7-yl)-2-methylpropanoic acid]"
2,11.2 nM,"C[C@H](C(=O)O)[C@H](c1ccc2c(c1)OC1(CC2)CCN([C@@H](C)c2cc(F)ccc2OC(F)(F)F)CC1)C1CC1 [Example 132, Sodium (2S,3R)-3-cyclopropyl-3-(1′-((S)-1-(5-fluoro-2-(trifluoromethoxy)phenyl)ethyl)spiro[chromane-2,4′-piperidin]-7-yl)-2-methylpropanoate]"
3,15.6 nM,"COc1cc(C(C)N2CCC3(CCc4ccc([C@H](C5CC5)[C@H](C)C(=O)O)cc4O3)CC2)c(C(F)(F)F)cn1 (single isomer, unassigned) [Example 106, sodium (2S,3R)-3-cyclo-propyl-3-(1′-((R or S)-1-(2-methoxy-5-(trifluoro-methyl)pyridin-4-yl)ethyl)spiro[chroman-2,4′-piperidin]-7-yl)-2-methylpropanoate]"
4,12.3 nM,"C[C@H](C(=O)O)[C@H](c1ccc2c(c1)OC1(CC2)CC(NCc2cc(C(F)(F)F)ccc2C(F)(F)F)C1)C1CC1 (single isomer, unassigned) [Example 96]"
5,1.62 nM,"C[C@H](C(=O)O)[C@H](c1ccc2c(c1)OC1(CC2)CC(N(C)Cc2cc(C(F)(F)F)ccc2C(F)(F)F)C1)C1CC1 (single isomer, unassigned) [Example 98]"
6,20.2 nM,"CC(c1cc(C2CC2)ccc1OC(F)(F)F)N1CCC2(CCc3ccc([C@H](C4CC4)[C@H](C)C(=O)O)cc3O2)CC1 (stereo partly drawn) [Example 111, (2S,3R)-3-cyclopropyl-3-(1′-(1-(5-cyclopropyl-2-(trifluoromethoxy)phenyl)ethyl)spiro[chroman-2,4′-piperidin]-7-yl)-2-methylpropanoic Acid]"
7,5.71 nM,"C[C@H](C(=O)O)[C@H](c1ccc2c(c1)OC1(CC2)CC(N[C@H](C)c2cc(C(F)(F)F)ccc2C(F)(F)F)C1)C1CC1 (stereo partly drawn) [Example 93, (2S,3R)-3-(3′-(((R)-1-(2,5-bis(trifluoro-methyl)phenyl)ethyl)a-mino)spiro[chroman-2,1′-cyclo-butan]-7-yl)-3-cyclopropyl-2-methylpropanic acid]"
8,995 nM,"COc1ncc(C(F)(F)F)cc1C(C)N1CCC2(CCc3ccc([C@H](C4CC4)[C@H](C)C(=O)O)cc3O2)CC1 (single isomer, unassigned) [Example 102, (2S,3R)-3-cyclopropyl-3-(1′-((R or S)-1-(2-methoxy-5-(trifluoromethyl)pyridin-3-yl)ethyl)spiro-[chroman-2,4′-piperidin]-7-yl)-2-methylpropanoic Acid]"
9,> 1000 nM,"C[C@H](C(=O)O)[C@H](c1ccc2c(c1)OC1(CC2)CCN([C@@H](C)c2cc(C(F)(F)F)ccc2C(F)(F)F)CC1)C1CC1 [Example 131, Sodium (2S,3R)-3-(1′-((S)-1-(2,5-bis(trifluoromethyl)phenyl)ethyl)spiro[chromane-2,4′-piperidin]-7-yl)-3-cyclopropyl-2-methylpropanoate]"
10,579 nM,"CCCn1cc(-c2ccc(OC(F)(F)F)c(C(C)N3CCC4(CCc5ccc([C@H](C6CC6)[C@H](C)C(=O)O)cc5O4)CC3)c2)cn1 (single isomer, unassigned) [Example 113, sodium (2S,3R)-3-cyclopropyl-2-methyl-3-(1′-S or R)-1-(5-(1-propyl-1H-pyrazol-4-yl)-2-(trifluoromethoxy)phenyl)eth-yl)spiro[chroman-2,4′-piperidin]-7-yl)propanoate]"
11,2.12 nM,"COc1cc(C(C)N2CCC3(CCc4ccc([C@H](C5CC5)[C@H](C)C(=O)O)cc4O3)CC2)c(C(F)(F)F)cn1 (single isomer, unassigned) [Example 107, sodium (2S,3R)-3-cyclo-propyl-3-(1′-((S or R)-1-(2-methoxy-5-(trifluoro-methyl)pyridin-4-yl)ethyl)spiro[chroman-2,4′-piperidin]-7-yl)-2-methylpropanoate]"
12,7.24 nM,"C[C@H](C(=O)O)[C@H](c1ccc2c(c1)OC1(CC2)CC(N(C)c2ncccc2C(F)(F)F)C1)C1CC1 (stereo partly drawn) [Example 90, (2S,3R)-3-cyclo-propyl-2-methyl-3-(3′-(methyl(3-(trifluoro-methyl)pyridin-2-yl)amino)spiro[chro-man-2,1′-cyclobutan]-7-yl)propanoic acid]"
13,3.1 nM,"C[C@H](C(=O)O)[C@H](c1ccc2c(c1)OC1(CC2)CCN([C@H](C)c2cc(C(F)(F)F)ccc2C(F)(F)F)CC1)C1CC1 [Example 130, Sodium (2S,3R)-3-(1′-((R)-1-(2,5-Bis(trifluoromethyl)phenyl)ethyl)spiro[chromane-2,4′-piperidin]-7-yl)-3-cyclopropyl-2-methylpropanoate]"
